According to patent US8901118B2, “Compounds and methods for kinase modulation, and indications therefor” (Plexxikon Inc., priority 2010, dated 2014):

Experiment: Relative solubility by turbidity in aqueous buffers (pH 1.5, 4.5, 6.8, 7.4)
Type: physicochemical
Conditions: for turbidity threshold (L, M, H) 1.4: pH 1.5 (SGF); for turbidity threshold (L, M, H) 4.5: pH 4.5 (SIF); for turbidity threshold (L, M, H) 6.8: pH 6.8 (SIF); for turbidity threshold (L, M, H) 7.4: pH 7.4 (HEPES)
How it was run: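 Twofold DMSO dilutions of a 25 mM stock were spiked into SGF (0.5M NaCl, pH 1.5), SIF (0.05M NaH2PO4, pH 4.5 and 6.8) or HEPES buffer (10 mM HEPES, 150 mM NaCl, pH 7.4). Absorbance was read at 490, 535 and 650 nm. The endpoint is the concentration crossing O.D. 0.01, averaged across wavelengths.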

| SMILES | turbidity threshold (L, M, H) 1.4 | turbidity threshold (L, M, H) 4.5 | turbidity threshold (L, M, H) 6.8 | turbidity threshold (L, M, H) 7.4 |
| --- | --- | --- | --- | --- |
| Clc1cnc2[nH]cc(Cc3cnc(NC4CCCCC4)nc3)c2c1 [Compound P-3001, [5-(5-chloro-1H-pyrrolo[2,3-b]pyridin-3-ylmethyl)-pyrimidin-2-yl]-cyclohexyl-amine] | H (high solubility if the threshold concentration is >250 μm) | L (low solubility if the threshold concentration is <31.3 μM) | L (low solubility if the threshold concentration is <31.3 μM) | L (low solubility if the threshold concentration is <31.3 μM) |
| Cc1cnc2[nH]cc(Cc3cnc(Nc4ccc(C(F)(F)F)nc4)nc3)c2c1 [Compound P-3018, [5-(5-Methyl-1H-pyrrolo[2,3-b]pyridin-3-ylmethyl)-pyrimidin-2-yl]-(6-trifluoromethyl-pyridin-3-yl)-amine] | H (high solubility if the threshold concentration is >250 μm) | M (moderate solubility if the threshold concentration is 31.3 μM to 250 μM) | M (moderate solubility if the threshold concentration is 31.3 μM to 250 μM) | M (moderate solubility if the threshold concentration is 31.3 μM to 250 μM) |
| COc1ccc(Nc2ccc(C(=O)c3c[nH]c4ncc(C)cc34)c(F)n2)cn1 [Compound P-3040, [2-Fluoro-6-(6-methoxy-pyridin-3-ylamino)-pyridin-3-yl]-(5-methyl-1H-pyrrolo[2,3-b]pyridin-3-yl)-methanone] | M (moderate solubility if the threshold concentration is 31.3 μM to 250 μM) | M (moderate solubility if the threshold concentration is 31.3 μM to 250 μM) | M (moderate solubility if the threshold concentration is 31.3 μM to 250 μM) | M (moderate solubility if the threshold concentration is 31.3 μM to 250 μM) |
| Cc1cnc2[nH]cc(C(=O)c3ccc(Nc4ccc(C)nc4)nc3F)c2c1 [Compound P-3043, [2-Fluoro-6-(6-methyl-pyridin-3-ylamino)-pyridin-3-yl]-(5-methyl-1H-pyrrolo[2,3-b]pyridin-3-yl)-methanone] | M (moderate solubility if the threshold concentration is 31.3 μM to 250 μM) | M (moderate solubility if the threshold concentration is 31.3 μM to 250 μM) | M (moderate solubility if the threshold concentration is 31.3 μM to 250 μM) | M (moderate solubility if the threshold concentration is 31.3 μM to 250 μM) |
| Cc1ccc(Nc2ccc(C(=O)c3c[nH]c4ncc(Cl)cc34)c(F)n2)cn1 [Compound P-3044, (5-Chloro-1H-pyrrolo[2,3-b]pyridin-3-yl)-[2-fluoro-6-(6-methyl-pyridin-3-ylamino)-pyridin-3-yl]-methanone] | L (low solubility if the threshold concentration is <31.3 μM) | L (low solubility if the threshold concentration is <31.3 μM) | L (low solubility if the threshold concentration is <31.3 μM) | M (moderate solubility if the threshold concentration is 31.3 μM to 250 μM) |
| CCOc1ccc(Nc2ccc(C(=O)c3c[nH]c4ncc(C)cc34)c(F)n2)cn1 [Compound P-3045, [6-(6-ethoxy-pyridin-3-ylamino)-2-fluoro-pyridin-3-yl]-(5-methyl-1H-pyrrolo[2,3-b]pyridin-3-yl)-methanone] | M (moderate solubility if the threshold concentration is 31.3 μM to 250 μM) | M (moderate solubility if the threshold concentration is 31.3 μM to 250 μM) | M (moderate solubility if the threshold concentration is 31.3 μM to 250 μM) | L (low solubility if the threshold concentration is <31.3 μM) |
| COc1ccc(Nc2ccc(Cc3c[nH]c4ncnc(C)c34)c(F)n2)cn1 [Compound P-4002, [6-Fluoro-5-(4-methyl-7H-pyrrolo[2,3-d]pyrimidin-5-ylmethyl)-pyridin-2-yl]-(6-methoxy-pyridin-3-yl)-amine] | H (high solubility if the threshold concentration is >250 μm) | M (moderate solubility if the threshold concentration is 31.3 μM to 250 μM) | M (moderate solubility if the threshold concentration is 31.3 μM to 250 μM) | M (moderate solubility if the threshold concentration is 31.3 μM to 250 μM) |
| COc1ncnc2[nH]cc(Cc3ccc(Nc4ccc(Cl)nc4)nc3F)c12 [Compound P-4003, (6-Chloro-pyridin-3-yl)-[6-fluoro-5-(4-methoxy-7H-pyrrolo[2,3-d]pyrimidin-5-ylmethyl)-pyridin-2-yl]-amine] | M (moderate solubility if the threshold concentration is 31.3 μM to 250 μM) | M (moderate solubility if the threshold concentration is 31.3 μM to 250 μM) | M (moderate solubility if the threshold concentration is 31.3 μM to 250 μM) | M (moderate solubility if the threshold concentration is 31.3 μM to 250 μM) |
| CCOc1ncnc2[nH]cc(Cc3ccc(Nc4ccc(C)nc4)nc3F)c12 [Compound P-4017, [5-(4-Ethoxy-7H-pyrrolo[2,3-d]pyrimidin-5-ylmethyl)-6-fluoro-pyridin-2-yl]-(6-methyl-pyridin-3-yl)-amine] | M (moderate solubility if the threshold concentration is 31.3 μM to 250 μM) | M (moderate solubility if the threshold concentration is 31.3 μM to 250 μM) | M (moderate solubility if the threshold concentration is 31.3 μM to 250 μM) | L (low solubility if the threshold concentration is <31.3 μM) |
| CCOc1ncnc2[nH]cc(Cc3ccc(Nc4ccc(OC)nc4)nc3F)c12 [Compound P-4018, [5-(4-Ethoxy-7H-pyrrolo[2,3-d]pyrimidin-5-ylmethyl)-6-fluoro-pyridin-2-yl]-(6-methoxy-pyridin-3-yl)-amine] | M (moderate solubility if the threshold concentration is 31.3 μM to 250 μM) | L (low solubility if the threshold concentration is <31.3 μM) | L (low solubility if the threshold concentration is <31.3 μM) | L (low solubility if the threshold concentration is <31.3 μM) |
| COCCOc1ncnc2[nH]cc(Cc3ccc(Nc4ccc(OC)nc4)nc3F)c12 [Compound P-4019, {6-Fluoro-5-[4-(2-methoxy-ethoxy)-7H-pyrrolo[2,3-d]pyrimidin-5-ylmethyl]-pyridin-2-yl}-(6-methoxy-pyridin-3-yl)-amine] | M (moderate solubility if the threshold concentration is 31.3 μM to 250 μM) | L (low solubility if the threshold concentration is <31.3 μM) | L (low solubility if the threshold concentration is <31.3 μM) | L (low solubility if the threshold concentration is <31.3 μM) |
| COc1ccc(Nc2ccc(C(=O)c3c[nH]c4ncnc(C5CC5)c34)c(F)n2)cn1 [Compound P-4022, (4-cyclopropyl-7H-pyrrolo[2,3-d]pyrimidin-5-yl)-[2-fluoro-6-(6-methoxy-pyridin-3-ylamino)-pyridin-3-yl]-methanone] | H (high solubility if the threshold concentration is >250 μm) | M (moderate solubility if the threshold concentration is 31.3 μM to 250 μM) | L (low solubility if the threshold concentration is <31.3 μM) | L (low solubility if the threshold concentration is <31.3 μM) |
| CCOc1ccc(Nc2ccc(C(=O)c3c[nH]c4ncnc(OC)c34)c(F)n2)cn1 [Compound P-4024, [6-(6-Ethoxy-pyridin-3-ylamino)-2-fluoro-pyridin-3-yl]-(4-methoxy-7H-pyrrolo[2,3-d]pyrimidin-5-yl)-methanone] | M (moderate solubility if the threshold concentration is 31.3 μM to 250 μM) | L (low solubility if the threshold concentration is <31.3 μM) | M (moderate solubility if the threshold concentration is 31.3 μM to 250 μM) | M (moderate solubility if the threshold concentration is 31.3 μM to 250 μM) |
| CCOc1ncnc2[nH]cc(C(=O)c3ccc(Nc4ccc(OC)nc4)nc3F)c12 [Compound P-4025, (4-Ethoxy-7H-pyrrolo[2,3-d]pyrimidin-5-yl)-[2-fluoro-6-(6-methoxy-pyridin-3-ylamino)-pyridin-3-yl]-methanone] | M (moderate solubility if the threshold concentration is 31.3 μM to 250 μM) | L (low solubility if the threshold concentration is <31.3 μM) | L (low solubility if the threshold concentration is <31.3 μM) | L (low solubility if the threshold concentration is <31.3 μM) |
| CCn1cc(Nc2ccc(Cc3c[nH]c4ncnc(C5CC5)c34)c(F)n2)cn1 [Compound P-4036, [5-(4-Cyclopropyl-7H-pyrrolo[2,3-d]pyrimidin-5-ylmethyl)-6-fluoro-pyridin-2-yl]-(1-ethyl-1H-pyrazol-4-yl)-amine] | H (high solubility if the threshold concentration is >250 μm) | M (moderate solubility if the threshold concentration is 31.3 μM to 250 μM) | L (low solubility if the threshold concentration is <31.3 μM) | L (low solubility if the threshold concentration is <31.3 μM) |
